This experiment concerns FD (familial dysautomonia) IKBKAP minigene, exon 20 inclusion, in HEK293T cells. Briefly: Primary splicing assay (FD IKBKAP minigene, Firefly/Renilla luciferase reporter in HEK293T). The format is cell-based, human. The note with it: Homo sapiens, HEK-293T, Firefly/Renilla ratio, 24 hours of treatment; for EC (maximum kinetin efficacy): HEK293T, read-out: ECk (compound concentration at which the maximum kinetin efficacy (200 μM) is reached); for Emax: max efficacy in Primary Assay, kinetin and DMSO as positive and negative controls, read-out: Emax (%).

As usually defined, the Emax is the greatest response seen or fitted, relative to the assay's reference. As to `COc1nc2c(NCc3ccco3)nc(Cl)nc2n1CCO` [(297)], the EC (maximum kinetin efficacy) amounted to 4.09 µM and the Emax came out at 150%.
As for `Clc1cc(NCc2ccncn2)n2ccnc2n1` [(298)], the maximum response (Emax) was 21%.
In the case of `FC(F)(F)COc1nc2c(NCc3ccncc3)nc(Cl)nc2[nH]1` [(299)], the EC (maximum kinetin efficacy) was 1.3 µM and the Emax amounted to 216%.
The corresponding values for `COc1nc2c(NCc3ccncn3)nc(Cl)nc2n1CCO` [(300)] are 10 µM and 84%.
As for `Cn1cnc2c(NCc3nccs3)nc(Cl)nc21` [(301)], the Emax was 45%.
Take `CSc1nc2c(NCc3ccncn3)nc(Cl)nc2[nH]1` [(303)]: the EC (maximum kinetin efficacy) turned out to be 1.51 µM and the Emax was determined as 243%.
The corresponding values for `Cn1cnc2nc(Cl)nc(NCc3nccs3)c21` [(304)] are 4.14 µM and 166%.
The corresponding values for `CCCCOc1nc2c(NCc3ccncc3)nc(Cl)nc2[nH]1` [(305)] are 0.43 µM and 284%.
The corresponding values for `CCCOc1nc2c(NCc3ccco3)nc(Cl)nc2n1CCO` [(306)] are 0.7 µM and 247%.
Consider `Clc1nc(NCc2ccncc2)c2nc(OCC3CCC3)[nH]c2n1` [(307)], for which the EC (maximum kinetin efficacy) was 0.21 µM and the maximal response (Emax) was determined as 292%.
`Clc1nc(NCc2ccco2)c2nc(OCC3CCC3)[nH]c2n1` [(308)]: the EC (maximum kinetin efficacy) is 0.15 µM and the maximal effect (Emax) was 310%.
In the same order, the values of `OCCOc1nc2c(NCc3ccncn3)nc(Cl)nc2[nH]1` [(309)] are 2.08 µM and 194%.
In the same order, the values of `OCCOc1nc2c(NCc3nccs3)nc(Cl)nc2[nH]1` [(310)] are 1.5 µM and 191%.
Consider `CCCCOc1nc2c(NCc3ccco3)nc(Cl)nc2[nH]1` [(311)], for which the EC (maximum kinetin efficacy) was determined as 0.56 µM and the Emax amounted to 221%.
In the case of `CCCOc1nc2c(NCc3nccs3)nc(Cl)nc2n1CCO` [(312)], the EC (maximum kinetin efficacy) amounted to 2.29 µM and the maximum response (Emax) is 195%.
Take `Cn1cnc2nc(Cl)nc(NCc3ccncc3)c21` [(313)]: the EC (maximum kinetin efficacy) turned out to be 7.48 µM and the Emax came out at 102%.
`Cn1cnc2nc(Cl)nc(NCc3ccco3)c21` [(314)]: the EC (maximum kinetin efficacy) stood at 2.31 µM and the maximal effect (Emax) worked out at 198%.
In the same order, the values of `OCCOc1nc2c(NCc3ccncc3)nc(Cl)nc2[nH]1` [(315)] are 2.52 µM and 165%.
In the same order, the values of `Cn1cnc2nc(Cl)nc(NCc3ccncn3)c21` [(316)] are 7.09 µM and 108%.
In the case of `CCCOc1nc2c(NCc3ccncn3)nc(Cl)nc2[nH]1` [(317)], the EC (maximum kinetin efficacy) came to 0.16 µM and the Emax was determined as 223%.
In the same order, the values of `CCCCOc1nc2c(NCc3nccs3)nc(Cl)nc2[nH]1` [(318)] are 0.54 µM and 186%.
The corresponding values for `Clc1nc(NCc2ccncn2)c2nc(OC3CCC3)[nH]c2n1` [(321)] are 1.41 µM and 197%.
On to `Clc1cc(NCc2ccco2)n2nccc2n1` [(322)], for which the maximal effect (Emax) is 21%.
`Clc1nc(NCc2ccco2)c2nc[nH]c2n1` [(323)]: the Emax worked out at 26%.
For `Clc1nc(NCc2nccs2)c2nc(OCC3CCC3)[nH]c2n1` [(324)], the EC (maximum kinetin efficacy) came to 0.16 µM and the Emax was 226%.
In the case of `Clc1cc(NCc2nccs2)n2nccc2n1` [(325)], the maximal response (Emax) is 20%.
Turning to `Clc1nc(NCc2ccncn2)c2nc(OCC3CCC3)[nH]c2n1` [(326)], the EC (maximum kinetin efficacy) came out at 0.07 µM and the Emax worked out at 287%.
The corresponding values for `CC(C)(C)OC(=O)N1CC(Oc2nc3c(NCc4ccncc4)nc(Cl)nc3[nH]2)C1` [(327)] are 4.64 µM and 145%.
On to `COCCOc1nc2c(NCc3nccs3)nc(Cl)nc2[nH]1` [(328)], for which the EC (maximum kinetin efficacy) stood at 1.79 µM and the Emax came to 184%.

These data come from patent US11702417B2, “Compounds for improving mRNA splicing” (The General Hospital Corporation, priority 2015, dated 2023).
